From patent publication US10548316B2, “Diarylazole compound and harmful organism control agent” (Nippon Soda Co., Ltd., priority 2015, dated 2020)

Assays:
Type in all cases: in vivo
Spodoptera litura = test: Efficacy test against Spodoptera litura; details: 144 h, cabbage leaves soaked, second-instar larvae, after 6 days, read-out: insect mortality rate
Method: (§1) 5 parts of the compound of the present invention, 93.6 parts of dimethylformamide, and 1.4 parts of polyoxyethylene alkylaryl ether were mixed and dissolved to prepare an emulsion (I) of 5% of the active ingredient.
(§2) The insect mortality rate and the control rate were calculated by the following formula. Insect mortality rate (%)=(number of dead insects/number of sample insects)×100 Prevention rate=[1−(Nt)/(Nc)]×100
(§3) Emulsion (I) was diluted with water so that the concentration of the compound of the present invention reaches 125 ppm. Cabbage leaves were soaked in the diluted liquid for 30 seconds. Then the cabbage leaves were put on Petri dishes, followed by inoculating 5 second-instar larvae of Spodoptera litura. The Petri dishes were placed in a thermostatic chamber with a temperature was 25° C. and a humidity of 60%. Life or death judgement was performed after 6 days were passed, and the insect mortality rate was calculated. The test was repeated twice.

Aedes aegypti larvae = test: Contact/feeding effect test on Aedes aegypti larvae; details: final concentration of 10 ppm, first-instar larvae, 48 hours, read-out: insect mortality rate
Method: A DMSO solution of the compound of the present invention was diluted with water to obtain a diluted solution with a concentration of 100 ppm. 10 first-instar larvae of Aedes aegypti were placed in each well of a 96-well microtiter plate together with breeding water, and 1/10 volume of the diluted solution with a concentration of 100 ppm was added so that the test was carried out at a final concentration of 10 ppm. The microtiter plate was incubated in a thermostatic chamber with a temperature of 28° C. and a humidity of 80%, and life or death judgement was performed on the larvae was investigated 48 hours after the chemical treatment. The test was repeated twice.

Phyllotreta striolata = test: Efficacy test against Phyllotreta striolata; details: 168 h, spray on bok choy seedlings, adults, 7 days after releasing, read-out: insect mortality rate
Method: as §1, §2
Emulsion (I) was diluted with water so that the compound of the present invention reaches 125 ppm to prepare a test solution. The above diluted solution was sprayed on bok choy seedlings (seventh true leaf development stage) planted in No. 3 pots. After air-drying, the bok choy seedlings were put in a plastic cup and 10 adult Phyllotreta striolata were released therein. The plastic cup was stored in a thermostatic chamber with a temperature of 25° C. and a humidity of 65%, and life or death judgment was performed 7 days after releasing Phyllotreta triolata, and the insect mortality rate was calculated by the formula. The test was repeated twice.

Culex pipiens = test: Efficacy test against Culex pipiens; details: Culex pipiens, 24 h, read-out: insect mortality rate
Method: as §1, §2
Emulsion (I) was diluted with water so that the concentration of the compound of the present invention reaches 2 ppm to prepare a chemical solution for test. 20 first-instar larvae of Culex pipiens were released into 100 ml of the chemical solution for test, then the number of dead insects was calculated after 1 day was passed, and the insect mortality rate was calculated by the formula. The test was repeated twice.

Aphis craccivora = test: Efficacy test against Aphis craccivora; details: 96 h, spray on infested cowpea plants, nymphs, 4 days after spraying, read-out: mortality rate
Method: as §1, §2
Cowpea plants were raised in No. 3 pots and the first true leaves were inoculated with Aphis craccivora nymphs. Emulsion (I) was diluted with water so that the concentration of the compound of the present invention reaches 125 ppm, followed by spraying the diluted liquid on the cowpea plants infested with Aphis craccivora nymphs. The cowpea plants were then placed in a thermostatic chamber with a temperature of 25° C. and a humidity of 60%. Life or death judgement was performed after 4 days were passed from the spraying, and the insect mortality rate of Aphis craccivora was calculated. The test was repeated twice.

Rhipicephalus microplus = test: Contact effect test on Rhipicephalus microplus; details: larvae, 24 hours after the chemical treatment, read-out: insect mortality rate
Method: A DMSO solution of the compound of the present invention was diluted with water to obtain a test solution with a concentration of 100 ppm. This chemical solution was dropped into a container containing 20 Rhipicephalus microplus larvae, and then incubated in a thermostatic chamber with a temperature of 28° C. and a humidity of 80%. Life or death judgement was performed on the larvae 24 hours after the chemical treatment. The test was repeated twice.

Ornithodorus moubata = test: Feeding effect test against Ornithodorus moubata; details: 10 ppm in defibrin blood of sheep; third-nymphs; 14 days after the blood sucking
Method: A DMSO solution of the compound of the present invention was mixed with a defibrin blood of sheep to obtain a mixed solution with a concentration of 10 ppm. 2 ml of this mixed solution was placed in a container and capped with a parafilm membrane. Then, 20 third-nymphs of Ornithodorus moubata ere released to suck the blood through the parafilm membrane for about 30 minutes. Then, the nymphs were transferred to a storage container and incubated in a thermostatic chamber with a temperature of 28° C. and a humidity of 80%, and life or death judgement and developmental stage-investigation was performed 14 days after the blood sucking. The test was repeated twice.

Musca domestica = test: Efficacy test against Musca domestica; details: 100 ppm on cube sugar, adult female, after 24 hours, read-out: insect mortality rate
Method: as §2
The compound of the present invention was diluted with acetone, followed by dropping to 1 g of cube sugar so that the concentration reaches to 100 ppm. The cube sugar was placed in a plastic cup and 10 adult female Musca domestica were released therein, followed by putting a lid on the cup. The cup was kept at 25° C., and life or death judgement was performed after 24 hours was passed from the releasing of Musca domestica, and the insect mortality rate was calculated by the formula. The test was repeated twice.

Lucilia cuprina larvae = test: Contact/feeding effect test on Lucilia cuprina larvae; details: 1000 ppm in horse meat, 48 hours, read-out: insect mortality rate
Method: A DMSO solution of the compound of the present invention was mixed with horse meat to obtain a mixture with a concentration of 1000 ppm. 20 Lucilia cuprina larvae were introduced into a test tube with the mixture. The tube was incubated in a thermostatic chamber with a temperature of 28° C. and a humidity of 80%, and life and death judgement was performed on the larvae 48 hours after the start of the test. The test was repeated twice.

Plutella xylostella = test: Efficacy test against Plutella xylostella; details: 72 h, cabbage leaves soaked, second-instar larvae, after 3 days, read-out: mortality rate
Method: as §1, §2
as §3, with “of Plutella xylostella.” for “of Spodoptera litura.”, “after 3” for “after 6”

Pseudaletia separata = test: Efficacy test against Pseudaletia separata (artificial diet); details: in vivo
Method: as §1, §2
0.8 g of commercially available artificial diet (Insecta US, manufactured by Nosan Corporation) and 1 μl of emulsion (1) were well mixed and 0.2 g of the resulting mixture was packed in a plastic test container (1.4 ml) per each treatment group to prepare test feeds.
2 second-instar larvae of Pseudaletia separata were inoculated into each treatment group and sealed with a plastic lid. The plastic test containers were placed in a thermostatic chamber with a temperature of 25° C., and the insect mortality rate and the food intake amount were investigated on the fifth day. The test was repeated twice.
Further, a test under the same conditions except that the compound of the present invention was removed from emulsion (I) was conducted as a solvent control group.

Rhopalosiphum padi = test: Efficacy test against Rhopalosiphum padi (seed treatment); details: 0.1 g compound per 10 g wheat seeds, adults released 7 days after seeding, counted after 6 days
Method: as §2
Nt: number of parasites in spray-treatment area
Nc: number of parasites in control area
0.1 g of each compound of the present invention was diluted with 2 ml of acetone to prepare chemical solutions for test. 10 g of wheat seeds was added to the chemical solution for test and air dried, followed by seedling 100 seeds in a planter. After keeping the planter in a warm room with a temperature of 25° C. for 7 days, 50 adult Rhopalosiphum padi were released in the planter. The number of surviving parasitized Rhopalosiphum padi was investigated after 6 days were passed, and the prevention rate was calculated by the formula. The test was repeated twice.

SMILES	mortality at 125 ppm (Spodoptera litura)	mortality at 10 ppm (Aedes aegypti larvae)	mortality at 125 ppm (Phyllotreta striolata)	mortality at 2 ppm (Culex pipiens)	mortality at 125 ppm (Aphis craccivora)	mortality at 100 ppm (Rhipicephalus microplus)	insect mortality rate (Ornithodorus moubata)	mortality at 100 ppm (Musca domestica)	mortality at 1000 ppm (Lucilia cuprina larvae)	mortality at 125 ppm (Plutella xylostella)	insect mortality rate (Pseudaletia separata)	prevention rate (Rhopalosiphum padi)
CCS(=O)(=O)c1cc(C(F)(F)F)ccc1-n1ncc(-c2ccc(OC(F)(F)F)cc2)c1N [Compound 1-12, 1-(2-(ethylsulfonyl)-4-(trifluoromethyl)phenyl)-4-(4-(trifluoromethoxy)phenyl)-1H-pyrazol-5-amine]	≥ 80%	≥ 90%	≥ 80%	100%	≥ 80%	≥ 90%	≥ 90%	≥ 80%	≥ 90%	≥ 80%	–	–
CCS(=O)(=O)c1cc(C(F)(F)F)ccc1-n1ncc(-c2ccc(C(F)(F)C(F)(F)F)nc2)c1N [Compound 1-33]	–	–	–	–	–	–	–	–	–	–	100%	≥ 80%
CCS(=O)(=O)c1cc(C(F)(F)F)ccc1-n1ncc(-c2ccc(OC(F)(F)F)cc2)c1Cl [Compound 1-17, 5-chloro-1-(2-(ethylsulfonyl)-4-(trifluoromethyl)phenyl)-4-(4-(trifluoromethoxy)phenyl)-1H-pyrazole]	≥ 80%	–	≥ 80%	–	≥ 80%	–	–	–	–	≥ 80%	–	–
